# Data from US9944646B2, “Bicyclic azaheterocyclobenzylamines as PI3K inhibitors” (Incyte Corporation, priority 2012, dated 2018).
# Target: PI3Kδ (Homo sapiens (Human), UniProt O00329)
# Assay: PI3K Enzyme Assay (Example A2), [γ-33P]ATP filter plate
# Type: biochemical
# Outline: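 Recombinant PI3Kδ at 2.9 nM with 50 µM PIP2 in MOPS pH 6.7, MgCl2, DTT, CHAPS, 0.5% DMSO; started with 1000 μM ATP including [γ-33P]ATP, 180 min at room temperature. Phosphorylated product captured on PVDF filter plates and scintillation-counted; IC50 from percent-control activity vs log concentration.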
# PI3Kδ, sequence (O00329 whole entry): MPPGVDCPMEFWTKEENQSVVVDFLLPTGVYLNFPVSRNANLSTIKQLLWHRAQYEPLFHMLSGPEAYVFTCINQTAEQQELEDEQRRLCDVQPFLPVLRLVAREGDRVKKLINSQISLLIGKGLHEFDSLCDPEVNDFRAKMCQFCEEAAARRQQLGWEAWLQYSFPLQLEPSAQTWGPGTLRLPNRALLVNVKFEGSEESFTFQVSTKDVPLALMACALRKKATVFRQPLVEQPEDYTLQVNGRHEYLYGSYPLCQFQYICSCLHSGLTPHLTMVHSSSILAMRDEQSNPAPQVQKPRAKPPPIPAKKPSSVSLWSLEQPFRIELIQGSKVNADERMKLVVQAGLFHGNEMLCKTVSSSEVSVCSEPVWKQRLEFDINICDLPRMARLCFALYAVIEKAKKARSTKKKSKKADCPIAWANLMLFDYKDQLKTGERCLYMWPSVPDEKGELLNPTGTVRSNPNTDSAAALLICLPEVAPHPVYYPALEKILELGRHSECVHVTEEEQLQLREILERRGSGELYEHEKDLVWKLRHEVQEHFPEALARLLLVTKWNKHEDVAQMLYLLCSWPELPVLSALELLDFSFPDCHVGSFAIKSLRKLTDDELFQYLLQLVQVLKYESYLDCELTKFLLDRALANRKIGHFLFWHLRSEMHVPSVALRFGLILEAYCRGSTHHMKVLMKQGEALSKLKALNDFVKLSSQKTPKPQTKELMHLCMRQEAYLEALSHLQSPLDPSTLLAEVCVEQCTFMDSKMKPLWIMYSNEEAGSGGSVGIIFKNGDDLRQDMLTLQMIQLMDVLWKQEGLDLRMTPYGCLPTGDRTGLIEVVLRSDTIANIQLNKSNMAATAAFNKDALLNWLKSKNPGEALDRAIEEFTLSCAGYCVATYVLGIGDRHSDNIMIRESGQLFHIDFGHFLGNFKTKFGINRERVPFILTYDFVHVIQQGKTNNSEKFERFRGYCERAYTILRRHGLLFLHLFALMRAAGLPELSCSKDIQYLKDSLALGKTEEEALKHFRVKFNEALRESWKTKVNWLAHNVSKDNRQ
# PI3Kδ, sequence (P27986 whole entry partner): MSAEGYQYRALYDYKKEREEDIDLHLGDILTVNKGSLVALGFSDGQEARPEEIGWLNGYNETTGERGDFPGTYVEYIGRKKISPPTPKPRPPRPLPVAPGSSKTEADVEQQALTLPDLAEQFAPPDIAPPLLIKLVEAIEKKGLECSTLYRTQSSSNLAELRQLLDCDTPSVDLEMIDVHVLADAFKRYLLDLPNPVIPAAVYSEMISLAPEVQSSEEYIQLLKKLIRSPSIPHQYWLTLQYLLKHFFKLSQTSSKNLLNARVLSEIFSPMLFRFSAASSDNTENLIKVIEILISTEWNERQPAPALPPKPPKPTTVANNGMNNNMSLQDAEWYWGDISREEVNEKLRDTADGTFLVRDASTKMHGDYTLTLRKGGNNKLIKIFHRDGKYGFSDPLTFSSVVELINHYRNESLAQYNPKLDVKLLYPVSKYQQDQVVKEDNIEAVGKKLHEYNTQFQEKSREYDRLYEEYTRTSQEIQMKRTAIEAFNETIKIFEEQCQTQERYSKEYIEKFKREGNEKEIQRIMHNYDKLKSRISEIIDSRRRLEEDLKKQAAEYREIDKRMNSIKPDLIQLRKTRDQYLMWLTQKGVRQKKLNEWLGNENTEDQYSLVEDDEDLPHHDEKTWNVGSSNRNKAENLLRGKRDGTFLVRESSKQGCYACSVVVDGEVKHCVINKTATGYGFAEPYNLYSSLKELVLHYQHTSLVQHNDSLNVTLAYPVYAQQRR
row,SMILES,IC50
1,"Cc1nn(C(C)c2cc(Cl)c(C#N)c3c2OC(C)CN(C2CN(CC(C)(C)O)C2)C3)c2ncnc(N)c12 (single isomer, unassigned) [Example 54, 9-[1-(4-Amino-3-methyl-1H-pyrazolo[3,4-d]pyrimidin-1-yl)ethyl]-7-chloro-4-[1-(2-hydroxy-2-methylpropyl)azetidin-3-yl]-2-methyl-2,3,4,5-tetrahydro-1,4-benzoxazepine-6-carbonitrile]",≤ 100 nM
2,"Cc1nn(C(C)c2cc(Cl)c(C#N)c3c2OC(C)CN(C2CN(S(=O)(=O)N(C)C)C2)C3)c2ncnc(N)c12 (single isomer, unassigned) [Example 105, 3-[9-[1-(4-amino-3-methyl-1H-pyrazolo[3,4-d]pyrimidin-1-yl)ethyl]-7-chloro-6-cyano-2-methyl-2,3-dihydro-1,4-benzoxazepin-4(5H)-yl]-N,N-dimethylazetidine-1-sulfonamide]",≤ 100 nM
3,"Cc1nn(C(C)c2cc(Cl)c(F)c3c2OC(C)CN(C2CN(C(=O)OC(C)(C)C)C2)C3)c2ncnc(N)c12 (single isomer, unassigned) [Example 26, tert-Butyl 3-[9-[1-(4-amino-3-methyl-1H-pyrazolo[3,4-d]pyrimidin-1-yl)ethyl]-7-chloro-6-fluoro-2-methyl-2,3-dihydro-1,4-benzoxazepin-4(5H)-yl]azetidine-1-carboxylate]",≤ 100 nM
4,"Cc1nn(C(C)c2cc(Cl)c(C#N)c3c2OCCN(C2CN(S(C)(=O)=O)C2)C3)c2ncnc(N)c12 (stereo not shown) [Example 90, 9-[1-(4-amino-3-methyl-1H-pyrazolo[3,4-d]pyrimidin-1-yl)ethyl]-7-chloro-4-[1-(methylsulfonyl)azetidin-3-yl]-2,3,4,5-tetrahydro-1,4-benzoxazepine-6-carbonitrile]",≤ 100 nM
5,"Cc1nn(C(C)c2cc(Cl)c(F)c3c2OCCN(C2CN(S(=O)(=O)N(C)C)C2)C3)c2ncnc(N)c12 (stereo not shown) [Example 74, 3-[9-[1-(4-amino-3-methyl-1H-pyrazolo[3,4-d]pyrimidin-1-yl)ethyl]-7-chloro-6-fluoro-2,3-dihydro-1,4-benzoxazepin-4(5H)-yl]-N,N-dimethylazetidine-1-sulfonamide]",≤ 100 nM
6,"Cc1nn(C(C)c2cc(Cl)c(C#N)c3c2OC(C)CN(C2CN(CC(C)(C)O)C2)C3)c2ncnc(N)c12 (single isomer, unassigned) [Example 55, 9-[1-(4-Amino-3-methyl-1H-pyrazolo[3,4-d]pyrimidin-1-yl)ethyl]-7-chloro-4-[1-(2-hydroxy-2-methylpropyl)azetidin-3-yl]-2-methyl-2,3,4,5-tetrahydro-1,4-benzoxazepine-6-carbonitrile]",≤ 100 nM
7,"Cc1nn(C(C)c2cc(Cl)c(F)c3c2OC(C)CN(C[C@@H](C)O)C3)c2ncnc(N)c12 (single isomer, unassigned) [Example 78]",≤ 100 nM
8,"CC(=O)N1CC(N2Cc3c(F)c(Cl)cc(C(C)n4nc(C)c5c(N)ncnc54)c3OC(C)C2)C1 (single isomer, unassigned) [Example 31, 1-{1-[4-(1-Acetylazetidin-3-yl)-7-chloro-6-fluoro-2-methyl-2,3,4,5-tetrahydro-1,4-benzoxazepin-9-yl]ethyl}-3-methyl-1H-pyrazolo[3,4-d]pyrimidin-4-amine]",> 800 nM
9,"Cc1nn(C(C)c2cc(Cl)c(F)c3c2OC(C)CN(C2CN(S(C)(=O)=O)C2)C3)c2ncnc(N)c12 (stereo not shown) [Example 75, 1-(1-{7-chloro-6-fluoro-2-methyl-4-[1-(methylsulfonyl)azetidin-3-yl]-2,3,4,5-tetrahydro-1,4-benzoxazepin-9-yl}ethyl)-3-methyl-1H-pyrazolo[3,4-d]pyrimidin-4-amine]",≤ 100 nM
10,"Cc1nn(C(C)c2cc(Cl)c(C#N)c3c2OCCN(C2CN(C(=O)NC(C)C)C2)C3)c2ncnc(N)c12 (stereo not shown) [Example 91, 3-[9-[1-(4-amino-3-methyl-1H-pyrazolo[3,4-d]pyrimidin-1-yl)ethyl]-7-chloro-6-cyano-2,3-dihydro-1,4-benzoxazepin-4(5H)-yl]-N-isopropylazetidine-1-carboxamide]",≤ 100 nM
